In test [1] the test system is MCF-7 cells. The test can be described thus: MCF7 Viability Assay (Breast Cancer Cell Viability Assay). As to conditions: 5 days' compound exposure, CellTiter-Glo; for IC50: Homo sapiens, MCF7, 120 h. The format is cell-based. The method in brief:
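Cells (320 per well, RPMI with 10% FBS and 20 mM HEPES) adhered overnight, then were exposed 5 days to an eleven-point semilog compound series, 0.3-0.000003 μM final. Viability read by CellTiter-Glo luminescence, background-subtracted, expressed as % of untreated cells.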

In test [2] the target is T1, ER-α (Homo sapiens, UniProt P03372).
T1 construct: endogenous in cells; host or cells: MCF-7
T1 sequence (P03372 1-595): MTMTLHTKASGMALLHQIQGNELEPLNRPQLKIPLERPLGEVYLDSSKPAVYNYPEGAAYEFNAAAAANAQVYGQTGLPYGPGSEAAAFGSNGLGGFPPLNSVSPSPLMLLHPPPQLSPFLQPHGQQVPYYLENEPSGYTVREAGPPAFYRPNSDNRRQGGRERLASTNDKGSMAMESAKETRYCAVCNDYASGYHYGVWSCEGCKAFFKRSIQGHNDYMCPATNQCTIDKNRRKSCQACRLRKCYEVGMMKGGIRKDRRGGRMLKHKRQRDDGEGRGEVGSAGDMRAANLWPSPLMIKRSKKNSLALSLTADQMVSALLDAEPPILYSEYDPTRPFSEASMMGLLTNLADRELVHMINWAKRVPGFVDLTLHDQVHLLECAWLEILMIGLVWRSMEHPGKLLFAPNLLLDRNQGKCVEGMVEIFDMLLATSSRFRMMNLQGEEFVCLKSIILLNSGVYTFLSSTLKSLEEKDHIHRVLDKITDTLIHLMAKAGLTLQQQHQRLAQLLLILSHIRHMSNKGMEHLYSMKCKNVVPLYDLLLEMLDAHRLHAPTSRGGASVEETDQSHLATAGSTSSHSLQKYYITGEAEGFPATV
The test is described as follows: Breast Cancer Cell ER-α In Cell Western Assay (SP1). In kind it is cell-based. As to conditions: MCF-7 cells, 4 or 24 hr post compound addition, SP1 antibody; for Emax: MCF7, read-out: ER-α In Cell Western Assay (SP1) Max Response; for DC50: read-out: ER-α In Cell Western Assay (SP1) IC50. The method in brief: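 MCF-7 cells in RPMI with 10% charcoal-stripped FBS received an eleven-point semilog series, 0.3-0.000003 μM final, for 4 or 24 hr. After fixation, ER-α stained with SP1 antibody and IRDye 800 CW, DNA with DRAQ5; % ER = 800/700 nm intensity ratio relative to untreated cells.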

The results in this text go back to patent US9586952B2, “Polycyclic estrogen receptor modulators and uses thereof” (SERAGON PHARMACEUTICALS, INC., priority 2013, dated 2017).

Each structure is given as a SMILES string.

Broadly, the IC50 is the concentration at which inhibition is half-maximal.

In the case of `N#Cc1ccc(/C(=C(\c2ccc(/C=C/C(=O)O)cc2)c2ccc(-c3cn[nH]c3)cc2)C2CCC2)c(Cl)c1` [Example 3, (E)-3-(4-((E)-1-(4-(1H-Pyrazol-4-yl)phenyl)-2-(2-chloro-4-cyanophenyl)-2-cyclobutylvinyl)phenyl) acrylic acid], in test [1], the “MCF7 Viability Assay Max Response” value is given as “++ (++ = a single % value ≧ 40%)” and the IC50 is not above 100 nM. In addition, in test [2], the Emax is not below 40% and the DC50 was not above 100 nM.
Take `O=C(O)/C=C/c1ccc(/C(=C(\c2ccccc2)C2CCC2)c2ccc(-c3ccncc3)cc2)cc1` [Example 66, (E)-3-(4-((E)-2-Cyclobutyl-2-phenyl-1-(4-(pyridin-4-yl)phenyl)vinyl)phenyl)acrylic acid]: in test [1], the “MCF7 Viability Assay Max Response” value is listed as “++ (++ = a single % value ≧ 40%)” and the IC50 is not above 100 nM. In test [2], the Emax is not below 40% and the DC50 was not above 100 nM.
Take `Cc1cscc1/C(=C(\c1ccc(/C=C/C(=O)O)cc1)c1ccc(-c2cncs2)cc1)C1CCC1` [Example 35, (E)-3-(4-((E)-2-Cyclobutyl-2-(4-methylthiophen-3-yl)-1-(4-(thiazol-5-yl)phenyl)vinyl)phenyl)acrylic acid]: in test [1], the “MCF7 Viability Assay Max Response” value was “++ (++ = a single % value ≧ 40%)” and the IC50 was not above 100 nM. Further, in test [2], the Emax is not below 40% and the DC50 was not above 100 nM.
Consider `CC/C(=C(/c1ccc(/C=C/C(=O)O)cc1)c1cccc(-c2nccs2)c1)c1ccccc1` [Example 11, (E)-3-(4-((E)-2-Phenyl-1-(3-(thiazol-2-yl)phenyl)but-1-en-1-yl)phenyl)acrylic acid], for which, in test [1], the “MCF7 Viability Assay Max Response” value is given as “+ (+ = a single % value < 40%)” and the IC50 is more than 100 nM. In test [2], the Emax is less than 40% and the DC50 is more than 100 nM.
With `O=C(O)/C=C/c1ccc(/C(=C(\c2ccccc2)C2CCC2)c2ccc(-c3cncs3)cc2)cc1` [Example 13, (E)-3-(4-((E)-2-Cyclobutyl-2-phenyl-1-(4-(thiazol-5-yl)phenyl)vinyl)phenyl)acrylic acid], in test [1], the “MCF7 Viability Assay Max Response” value is “++ (++ = a single % value ≧ 40%)” and the concentration for half-maximal inhibition (IC50) was not above 100 nM. In test [2], the Emax is not below 40% and the DC50 was not above 100 nM.
Turning to `CC/C(=C(/c1ccc(/C=C/C(=O)O)cc1)c1ccc(-c2cncs2)cc1)c1ccc(F)cc1Cl` [Example 2, (E)-3-(4-((E)-2-(2-Chloro-4-fluorophenyl)-1-(4-(thiazol-5-yl)phenyl)but-1-en-1-yl)phenyl)acrylic acid], in test [1], the “MCF7 Viability Assay Max Response” value is reported as “++ (++ = a single % value ≧ 40%)” and the IC50 is not above 100 nM. In addition, in test [2], the Emax is not below 40% and the DC50 is not above 100 nM.
With `O=C(O)/C=C/c1ccc(/C(=C(\c2ccc(F)cc2Cl)C2CCC2)c2ccc(-c3nn[nH]n3)cc2)cc1` [Example 49, (E)-3-(4-((E)-1-(4-(2H-Tetrazol-5-yl)phenyl)-2-(2-chloro-4-fluorophenyl)-2-cyclobutylvinyl)phenyl)acrylic acid], in test [1], the “MCF7 Viability Assay Max Response” value was “+ (+ = a single % value < 40%)” and the IC50 was more than 100 nM. For the same compound, in test [2], the Emax was less than 40% and the DC50 was more than 100 nM.
In the case of `CC/C(=C(/c1ccc(/C=C/C(=O)O)cc1)c1ccc(N2CCN(C)CC2)cc1)c1ccccc1` [Example 23, (E)-3-(4-((E)-1-(4-(4-Methylpiperazin-1-yl)phenyl)-2-phenylbut-1-en-1-yl)phenyl)acrylic acid], in test [1], the “MCF7 Viability Assay Max Response” value is given as “++ (++ = a single % value ≧ 40%)” and the IC50 was more than 100 nM. In addition, in test [2], the Emax is not below 40% and the DC50 is not above 100 nM.
